Results as given in patent publication US20240209061A1, “FUSION PROTEINS AND USES THEREOF” (Pfizer Inc., priority 2020, published 2024).

What was measured:
[1] = mouse, in vivo, iv, 0.1 mg/kg
Procedure: PK of CD80-Fc fusion proteins was also assessed in transgenic mice expressing the human neonatal Fc receptor (huFcRn) a-chain transgene under the control of its natural human promoter. Female mice were dosed intravenously with CD80-Fc fusion proteins at 0.1 mg/kg, and blood was collected at the timepoints indicated on the graph. Levels of CD80-Fc in mouse plasma were measured as described above.

[2] = system: EMT6 murine breast cancer cells; assay: EMT6 murine breast cancer model; assay type: in vivo, mouse; settings: for Day 17 tumor volume: Days 0 and 3; for % tumor growth inhibition: Day 17; for # IFNγ-producing spots, Spleen / # IFNγ-producing spots, TDLN: average of n = 4 mice; for CD8^+ T cell infiltrates (% CD45): EMT6, n=4
Procedure: EMT6 murine breast cancer cells (3×10^5) were orthotopically implanted in the mammary fat pad of female Balb/c mice. When tumors reached ˜90 mm^3 (day 5 after implantation), mice were randomized. PBS vehicle control or variant CD80-Fc fusion proteins were dosed intravenously at 0.01, 0.1, 1.0 and 3.0 mg/kg on Days 0 and 3. Tumor volume was determined by caliper measurements obtained in 2 dimensions and calculated as width^2×length/2. Error bars are depicted as ±SEM.
Tumor-reactive T cells in the spleen and tumor-draining lymph nodes (TDLNs) were measured by IFNγ ELIspot in mice treated with CD80-K89D-D90K-T28V-T57V-Fc.
(§1) Cytotoxic CD8^+ T cells are responsible for killing cancer cells and the measurement of CD8^+ T cells that have infiltrated tumors commonly correlates with efficacy for immune-oncology therapies. For all in vivo studies, tumors were collected ˜1 week after the first dose and dissociated by mincing, followed by incubation in an enzymatic digestion cocktail and homogenization. The resulting cell suspension was filtered and washed, and single cells were stained with antibodies to CD45, CD8, and a viability dye to detect tumor-infiltrating lymphocytes (TILs) by flow cytometry. Data were acquired on a BD LSRFortessa flow cytometer or a Cytek Aurora spectral flow cytometer. Table 31 and FIG. 18 show the amount of tumor-infiltrating CD8+ T cells expressed as a percentage of total immune cells (CD45+). Each value is the average of n=4 mice per group. Treatment with all variant CD80-Fc fusion proteins led to increase in CD8+ TILs in various tumor models.

[3] = system: CD3+ T cells from PBMCs; assay: Gene expression pattern in primary human T cells (Nanostring); assay type: cell-based; settings: with anti-human CD3 antibody; 24 hour
Procedure: 96-well plates were coated overnight with 1 μg/ml of anti-human CD3 antibody (HIT3a clone, BioLegend). The following day, plates were washed 2× with PBS and blocked for 1 hour with 200 μl of complete IMDM (10% FBS, 1% Pen/Strep)/well. Upon removal of the blocking medium, plates were seeded with 250,000 PBMCs derived from three different donors and the following proteins: 1) 1.2 μg/ml CD80-K89D-D90K-T28V-T57V-Fc (concentration associated with max IL-2 production in similar assays), 2) 12 μg/ml CD80-WT-Fc (concentration associated with max IL-2 production in similar assay), and 3) 5 μg/ml anti-human CD28 antibody.
After 24 hour incubation at 37° C. in a CO2 incubator, cells were harvested and stained with viability dye and anti-human CD3 (UCHT1 clone, Biolegend)). Viable CD3+ T cells were flow sorted and used for RNA extraction following Qiagen RNeasy protocol. Isolated RNA was used for a gene expression analysis utilizing Nanostring platform.

[4] = system: MC38 murine colorectal carcinoma cells; assay: MC38 murine colorectal carcinoma model, IV and SC dosing; assay type: in vivo, mouse; settings: for CD8^+ T cell infiltrates (% CD45): MC38, n=4
Procedure: MC38 murine colorectal carcinoma cells (5×10^5) were subcutaneously implanted in the hind flank of female […] mice. When tumors reach ˜50 mm^3 (day 6 after implantation), mice were randomized. PBS vehicle control or variant CD80-Fc fusion proteins were dosed intravenously (IV) or subcutaneously (SC) with doses ranging from 0.01-3.0 mg/kg on Days 0 and 3. Tumor volume was determined by caliper measurements obtained in 2 dimensions and calculated as width^2×length/2. Error bars are depicted as ±SEM.
as §1

[5] = system: CT26 murine colorectal carcinoma cells; assay: CT26 colorectal carcinoma model, combination with αPD1 antibody; assay type: in vivo, mouse; settings: for Day 13 tumor volume / % tumor growth inhibition: αPD1 Ab 10 mg/kg where combined; for % tumor growth inhibition: Day 13
Procedure: CT26 murine colorectal carcinoma cells (1×10^6) were subcutaneously implanted in the hind flank of female Balb/c mice. When tumors reached ˜100 mm3 (day 8 after implantation), mice were randomized and dosed with PBS vehicle control, 0.1 mg/kg CD80-D90Q-Fc, and/or 10 mg/kg murine αPD1 antibody. CD80-D90Q-Fc was dosed on Days 0 and 3, αPD1 antibody was dosed on Days 0, 3 and 6. Tumor volume was determined by caliper measurements obtained in 2 dimensions and calculated as width^2×length/2. Error bars are depicted as ±SEM
IFNγ ELIspot was used to measure tumor-reactive T cells in the spleen and TDLNs in mice treated with 1 mg/kg D90Q, αPD1 Ab, or the combination. […] The combination led to an even higher amount of tumor-reactive T cells in the TDLN compared to either agent alone.

[6] = system: EMT6 murine breast cancer cells; assay: EMT6 breast cancer model, combination with talazoparib; assay type: in vivo, mouse; settings: for Day 20 tumor volume: talazoparib 0.33 mg/kg daily where combined; for % tumor growth inhibition: Day 20, talazoparib 0.33 mg/kg where combined
Procedure: EMT6murine breast cancer cells (3×10^5) were orthotopically implanted in the mammary fat pad of female Balb/c mice. When tumors reached ˜90 mm^3 (day 5 after implantation), mice were randomized and dosed with PBS vehicle control, CD80-K89Q-D90Q-E23C-A26C-Fc (0.1 or 1 mg/kg), and/or 0.33 mg/kg talazoparib (Tala). CD80-D90Q-Fc was dosed on Days 0 and 3, talazoparib was dosed daily. Tumor volume was determined by caliper measurements obtained in 2 dimensions and calculated as width^2×length/2. Error bars are depicted as ±SEM

[7] = CD80-D90Q-Fc 1 mg/kg and/or αPD1 Ab, n=4 per group

## CD80-K89D-D90K-T28V-T57V-Fc: non-cysteine stabilized variant CD80-Fc fusion protein (K89D, D90K, T28V, T57V)
[1]
  T1/2: 106 h
[2]; 0.01 mg/kg IV
  Day 17 tumor volume: 1552.0 mm^3
[2]; 0.01 mg/kg
  % tumor growth inhibition: 0.4%
  # IFNγ-producing spots, Spleen: 123.1
  # IFNγ-producing spots, TDLN: 51.9
  CD8^+ T cell infiltrates (% CD45): 3.98 % CD45
[2]; 0.1 mg/kg IV
  Day 17 tumor volume: 981.2 mm^3
[2]; 0.1 mg/kg
  % tumor growth inhibition: 39.0%
  # IFNγ-producing spots, Spleen: 117.9
  # IFNγ-producing spots, TDLN: 132.3
  CD8^+ T cell infiltrates (% CD45): 9.59 % CD45
[2]; 1 mg/kg IV
  Day 17 tumor volume: 818.8 mm^3
[2]; 1 mg/kg
  % tumor growth inhibition: 50.1%
  # IFNγ-producing spots, Spleen: 336.4
  # IFNγ-producing spots, TDLN: 475.2
  CD8^+ T cell infiltrates (% CD45): 15.91 % CD45
[2]; 3 mg/kg IV
  Day 17 tumor volume: 133.4 mm^3
[2]; 3 mg/kg
  % tumor growth inhibition: 96.6%
  # IFNγ-producing spots, Spleen: 427.7
  # IFNγ-producing spots, TDLN: 540.9
  CD8^+ T cell infiltrates (% CD45): 8.19 % CD45
[3]
  IL7Rα- and TIGIT-encoding genes relative to anti-human CD3-only baseline, compared to CD80-WT-Fc: greater decrease
  expression level of OX-40-encoding gene relative to CD80-WT-Fc: enhanced
  expression of anti-apoptotic BCL-XL compared to CD80-WT-Fc: enhanced expression
  expression of pro-apoptotic CASP8 compared to CD80-WT-Fc: decreased expression
  gene expression of IL-2, IL-21 and Lymphotoxin Alpha (LTA) compared to CD80-WT-Fc: enhanced gene expression
[4]; Day 15, Intravenous 0.01 mg/kg
  % tumor growth inhibition: 17.9%
[4]; Day 15, Intravenous 0.1 mg/kg
  % tumor growth inhibition: 25.2%
[4]; Day 15, Intravenous 1 mg/kg
  % tumor growth inhibition: 59.9%
[4]; Day 15, Intravenous 3 mg/kg
  % tumor growth inhibition: 83.8%
[4]; Day 15, Subcutaneous 0.01 mg/kg
  % tumor growth inhibition: 11.1%
[4]; Day 15, Subcutaneous 0.1 mg/kg
  % tumor growth inhibition: 27.1%
[4]; Day 15, Subcutaneous 1 mg/kg
  % tumor growth inhibition: 73.7%
[4]; Day 15, Subcutaneous 3 mg/kg
  % tumor growth inhibition: 84.4%
[4]; Intravenous 0.01 mg/kg
  Day 15 tumor volume: 1042.1 mm^3
[4]; Intravenous 0.1 mg/kg
  Day 15 tumor volume: 954.8 mm^3
[4]; Intravenous 1 mg/kg
  Day 15 tumor volume: 535.3 mm^3
[4]; Intravenous 3 mg/kg
  Day 15 tumor volume: 248.1 mm^3
[4]; 0.01 mg/kg
  CD8^+ T cell infiltrates (% CD45): 6.26 % CD45
[4]; 0.1 mg/kg
  CD8^+ T cell infiltrates (% CD45): 10.81 % CD45
[4]; 1 mg/kg
  CD8^+ T cell infiltrates (% CD45): 23.58 % CD45
[4]; Subcutaneous 0.01 mg/kg
  Day 15 tumor volume: 1125.4 mm^3
[4]; Subcutaneous 0.1 mg/kg
  Day 15 tumor volume: 931.7 mm^3
[4]; Subcutaneous 1 mg/kg
  Day 15 tumor volume: 369.7 mm^3
[4]; Subcutaneous 3 mg/kg
  Day 15 tumor volume: 240.9 mm^3

## CD80-D90Q-Fc: variant CD80 ECD (D90Q) fused to human IgG1 Fc
[5]; [7]
  Tumor-reactive T cells (IFNγ ELIspot), Spleen: 881.42
  Tumor-reactive T cells (IFNγ ELIspot), TDLN: 361.08
[5]; CD80-Fc dose 0.1 mg/kg
  Day 13 tumor volume: 776.1 mm^3
  % tumor growth inhibition: 61.2%
[5]; CD80-Fc dose 1 mg/kg
  Day 13 tumor volume: 270.4 mm^3
  % tumor growth inhibition: 86.5%

## CD80-K89Q-D90Q-E23C-A26C-Fc: disulfide stabilized variant CD80-Fc fusion protein (K89Q, D90Q, E23C, A26C)
[2]; 0.01 mg/kg IV
  Day 17 tumor volume: 1581.7 mm^3
[2]; 0.01 mg/kg
  % tumor growth inhibition: −1.7%
[2]; 0.1 mg/kg IV
  Day 17 tumor volume: 912.2 mm^3
[2]; 0.1 mg/kg
  % tumor growth inhibition: 43.7%
[2]; 1 mg/kg IV
  Day 17 tumor volume: 357.2 mm^3
[2]; 1 mg/kg
  % tumor growth inhibition: 81.4%
[2]; 3 mg/kg IV
  Day 17 tumor volume: 457.5 mm^3
[2]; 3 mg/kg
  % tumor growth inhibition: 74.6%
[6]; CD80-Fc dose 0.1 mg/kg
  Day 20 tumor volume: 1149.2 mm^3
  % tumor growth inhibition: 43.1%
[6]; CD80-Fc dose 1 mg/kg
  Day 20 tumor volume: 637.5 mm^3
  % tumor growth inhibition: 70.5%
[4]; Day 16, Intravenous 0.01 mg/kg
  % tumor growth inhibition: 31.2%
[4]; Day 16, Intravenous 0.1 mg/kg
  % tumor growth inhibition: 37.7%
[4]; Day 16, Intravenous 1 mg/kg
  % tumor growth inhibition: 64.2%
[4]; Day 16, Intravenous 3 mg/kg
  % tumor growth inhibition: 93.0%
[4]; Day 16, Subcutaneous 1.5 mg/kg
  % tumor growth inhibition: 64.2%
[4]; Day 16, Subcutaneous 3 mg/kg
  % tumor growth inhibition: 83.7%
[4]; Intravenous 0.01 mg/kg
  Day 16 tumor volume: 905.1 mm^3
[4]; Intravenous 0.1 mg/kg
  Day 16 tumor volume: 824.7 mm^3
[4]; Intravenous 1 mg/kg
  Day 16 tumor volume: 495.3 mm^3
[4]; Intravenous 3 mg/kg
  Day 16 tumor volume: 138.9 mm^3
[4]; 0.01 mg/kg
  CD8^+ T cell infiltrates (% CD45): 9.8 % CD45
[4]; 0.1 mg/kg
  CD8^+ T cell infiltrates (% CD45): 24.5 % CD45
[4]; 1 mg/kg
  CD8^+ T cell infiltrates (% CD45): 24.6 % CD45
[4]; 3 mg/kg
  CD8^+ T cell infiltrates (% CD45): 41.3 % CD45
[4]; Subcutaneous 1.5 mg/kg
  Day 16 tumor volume: 495.6 mm^3
[4]; Subcutaneous 3 mg/kg
  Day 16 tumor volume: 252.2 mm^3
